Starred links: 1 amine or outer side, 2 acyl side, 3 side chain; linkers in the order of their positions; H or OH if unused. Positions of bridges follow the written chain, without caps; N, C: chain ends. Non-standard residues stand in square brackets, D forms with d. Residues, ends and D or L forms follow the SMILES beside them. Pyridine(2,6-diCH2) = c1cc(C[*:1])nc(C[*:2])c1; Trp(5-F) = N[C@@H](Cc1c[nH]c2ccc(F)cc12)C(=O)O; Tyr(3-Cl) = N[C@@H](Cc1ccc(O)c(Cl)c1)C(=O)O; Pro(cis-4-F) = O=C(O)[C@@H]1C[C@H](F)CN1; X4 = O=C(CCSCc1cccc(CSCCN[*:1])c1)[*:2]; TBMB = c1c(C[*:1])cc(C[*:3])cc1C[*:2]; mXylylene = c1cc(C[*:1])cc(C[*:2])c1; AEF = NCCOc1ccc(C[C@H](N)C(=O)O)cc1; Val(3-OH) = CC(C)(O)[C@H](N)C(=O)O; X21 = O=C(Cc1cccc(CN[*:2])c1)[*:1]; X15 = Brc1cc(C[*:1])cc(C[*:2])c1; aThr = C[C@H](O)[C@H](N)C(=O)O; αMeP = C[C@@]1(C(=O)O)CCCN1; Aib = CC(C)(N)C(=O)O; Mpa = O=C(O)CCS
Experiments:
PCSK9 = PCSK9 (Homo sapiens (Human), UniProt Q8NBP7); test: PCSK9 Alexa FRET Standard assay (displacement of AlexaFluor647 tagged cyclic peptide Reagent A); format: binding; conditions: PCSK9 Alexa FRET Standard assay, 0.5 nM PCSK9, 20 nM AF cyclic peptide Reagent A; read-out: IC50
Chain of PCSK9 (Q8NBP7 153-692): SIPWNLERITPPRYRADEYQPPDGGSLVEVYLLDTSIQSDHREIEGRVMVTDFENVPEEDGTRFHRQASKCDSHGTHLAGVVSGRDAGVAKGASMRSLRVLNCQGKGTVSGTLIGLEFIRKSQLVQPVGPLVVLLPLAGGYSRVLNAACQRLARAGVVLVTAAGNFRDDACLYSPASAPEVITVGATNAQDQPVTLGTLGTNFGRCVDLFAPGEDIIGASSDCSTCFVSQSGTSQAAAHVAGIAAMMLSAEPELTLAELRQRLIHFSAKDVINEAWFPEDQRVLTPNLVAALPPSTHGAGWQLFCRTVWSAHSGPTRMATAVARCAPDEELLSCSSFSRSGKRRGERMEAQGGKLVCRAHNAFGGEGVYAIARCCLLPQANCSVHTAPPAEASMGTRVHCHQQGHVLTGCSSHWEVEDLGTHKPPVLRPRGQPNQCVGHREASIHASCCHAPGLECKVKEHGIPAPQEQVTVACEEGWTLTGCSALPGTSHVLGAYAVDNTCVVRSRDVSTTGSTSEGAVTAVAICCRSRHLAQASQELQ
In short: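 TR-FRET displacement: 0.5 nM biotinylated PCSK9 with 1.25 nM Strep-Eu and 20 nM AlexaFluor-tagged cyclic peptide (final) in 50 mM HEPES pH 7.4, 0.15 M NaCl, 5 mM CaCl2, 0.01% BSA, 0.01% P20, ≥2 h at room temperature. IC50 from sigmoidal fit, converted to Ki via peptide KD; falling Eu counts flagged false positives.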

[1] = biological target: human PCSK9 / human LDLR EGFa domain interaction (Homo sapiens (Human), UniProt Q8NBP7); test: TR-FRET assay of inhibition of the PCSK9-LDLR protein-protein interaction; format: binding; conditions: TR-FRET, 20 nM human PCSK9, 20 nM human LDLR EGFa domain, 2 hours room temperature; read-out: IC50
Chain of human PCSK9 / human LDLR EGFa domain interaction (Q8NBP7 153-692): as above
Chain of human PCSK9 / human LDLR EGFa domain interaction (Q8NBP7 31-152 partner): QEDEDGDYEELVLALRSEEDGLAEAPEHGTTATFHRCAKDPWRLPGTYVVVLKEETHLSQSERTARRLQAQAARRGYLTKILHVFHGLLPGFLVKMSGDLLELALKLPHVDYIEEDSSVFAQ
In short: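 Readout is the TR-FRET signal between europium anti-6×His on his-tagged LDLR EGFa domain and Ulight streptavidin on biotinylated PCSK9, both proteins at 20 nM and both detection reagents at 5 nM. Incubation lasted 2 hours at room temperature; compounds were run in dose-response with a 4-parameter fit.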

Compound	IC50 (PCSK9) [µM]	IC50 [1] [µM]
C[C@H]1NC(=O)[C@H](CCCCN)NC(=O)CCSCc2cccc(c2)CSC[C@@H](C(N)=O)NC(=O)[C@]2(C)CCCN2C(=O)[C@H](Cc2ccc(O)cc2)NC(=O)C(C)(C)NC(=O)[C@@H]2CCCN2C(=O)[C@H](Cc2c[nH]c3ccc(F)cc23)NC(=O)[C@H](Cc2c[nH]c3ccc(F)cc23)NC1=O [Compound 005] ([Mpa]K[dA][Trp(5-F)][Trp(5-F)]P[Aib]Y[αMeP]C-NH2; linker 1-10 via mXylylene)	0.1 to 1	0.0001 to 0.1
COc1ccc(C[C@@H]2NC(=O)[C@H]([C@@H](C)O)NC(=O)[C@@H]3CCCN3C(=O)[C@H](Cc3c[nH]c4ccc(F)cc34)NC(=O)[C@H](Cc3c[nH]c4ccc(F)cc34)NC(=O)[C@@H](C)NC(=O)[C@H](CCCCN)NC(=O)CCSCc3cc(C)cc(c3)CSC[C@@H](C(N)=O)NC(=O)[C@]3(C)CCCN3C2=O)cc1 [Compound 062] ([Mpa]K[dA][Trp(5-F)][Trp(5-F)]PTY(Me)[αMeP]C-NH2; linker 1-10 via TBMB)	1 to 12.1	1 to 12.1
CC(C)[C@H]1NC(=O)[C@H](CCCCN)NC(=O)CCSCc2cccc(c2)CSC[C@@H](C(N)=O)NC(=O)[C@]2(C)CCCN2C(=O)[C@H](Cc2ccc(O)cc2)NC(=O)[C@H]([C@@H](C)O)NC(=O)[C@@H]2CCCN2C(=O)[C@H](Cc2c[nH]c3ccc(F)cc23)NC(=O)[C@H](Cc2c[nH]c3ccc(F)cc23)NC1=O [Compound 052] ([Mpa]K[dV][Trp(5-F)][Trp(5-F)]PTY[αMeP]C-NH2; linker 1-10 via mXylylene)	1 to 12.1	1 to 12.1
C[C@H]1NC(=O)[C@H](CCCCN)NC(=O)CCSCc2cccc(c2)CSCCNC(=O)[C@]2(C)CCCN2C(=O)[C@H](Cc2ccc(O)c(Cl)c2)NC(=O)[C@H](Cc2cnc[nH]2)NC(=O)[C@H](CC(=O)O)NC(=O)[C@H](Cc2c[nH]c3ccc(F)cc23)NC(=O)[C@H](Cc2c[nH]c3ccc(F)cc23)NC1=O [Compound 246] (cyclo(DH[Tyr(3-Cl)][αMeP][X4]K[dA][Trp(5-F)][Trp(5-F)]))	1 to 12.1	0.1 to 1
COc1ccc(C[C@@H]2NC(=O)[C@H]([C@@H](C)O)NC(=O)[C@@H]3CCCN3C(=O)[C@H](Cc3c[nH]c4ccc(F)cc34)NC(=O)[C@H](Cc3c[nH]c4ccc(F)cc34)NC(=O)[C@@H](C)NC(=O)[C@H](CCCCN)NC(=O)CCSCc3cccc(c3)CSC[C@@H](C(N)=O)NC(=O)[C@]3(C)CCCN3C2=O)cc1 [Compound 054] ([Mpa]K[dA][Trp(5-F)][Trp(5-F)]PTY(Me)[αMeP]C-NH2; linker 1-10 via mXylylene)	0.1 to 1	0.0001 to 0.1
COc1ccc(C[C@@H]2NC(=O)[C@H]([C@@H](C)O)NC(=O)[C@@H]3CCCN3C(=O)[C@H](Cc3c[nH]c4ccc(F)cc34)NC(=O)[C@H](Cc3c[nH]c4ccc(F)cc34)NC(=O)[C@@H](C)NC(=O)[C@H](CCCCN)NC(=O)CCSCc3cc(Br)cc(c3)CSC[C@@H](C(N)=O)NC(=O)[C@]3(C)CCCN3C2=O)cc1 [Compound 061] ([Mpa]K[dA][Trp(5-F)][Trp(5-F)]PTY(Me)[αMeP]C-NH2; linker 1-10 via X15)	21 to 50	21 to 50
CO[C@@H](C)[C@@H]1NC(=O)[C@@H]2CCCN2C(=O)[C@H](Cc2c[nH]c3ccc(F)cc23)NC(=O)[C@H](Cc2c[nH]c3ccc(F)cc23)NC(=O)[C@@H](C)NC(=O)[C@H](CCCCN)NC(=O)CCSCc2cccc(c2)CSC[C@@H](C(N)=O)NC(=O)[C@]2(C)CCCN2C(=O)[C@H](Cc2ccc(O)cc2)NC1=O [Compound 053] ([Mpa]K[dA][Trp(5-F)][Trp(5-F)]P[aThr](Me)Y[αMeP]C-NH2; linker 1-10 via mXylylene)	1 to 12.1	1 to 12.1

Results, then the compound that gave them:

IC50 (PCSK9) [µM]	IC50 [1] [µM]	Compound
1 to 12.1	0.1 to 1	CC(=O)N[C@H]1CCC(=O)NCCOc2ccc(cc2)C[C@@H](C(N)=O)NC(=O)[C@]2(C)CCCN2C(=O)[C@H](Cc2ccc(O)cc2)NC(=O)[C@H](Cc2c[nH]cn2)NC(=O)[C@H](CC(=O)O)NC(=O)[C@H](Cc2c[nH]c3ccc(F)cc23)NC(=O)[C@H](Cc2c[nH]c3ccc(F)cc23)NC(=O)CNC(=O)[C@H](C)NC1=O [Compound 311] (Ac-EAG[Trp(5-F)][Trp(5-F)]DHY[αMeP][AEF]-NH2; lactam 1-10)
0.00011 to 0.1	0.0001 to 0.1	COc1ccc(C[C@@H]2NC(=O)[C@H]([C@H](C)O)NC(=O)[C@@H]3C[C@H](F)CN3C(=O)[C@H](Cc3c[nH]c4ccc(F)cc34)NC(=O)[C@H](Cc3c[nH]c4ccc(F)cc34)NC(=O)[C@@H](C)NC(=O)[C@H](CCCCN)NC(=O)[C@H](NC(C)=O)CCc3cn(nn3)-c3ccc(cc3)C[C@@H](C(N)=O)NC(=O)[C@]3(C)CCCN3C2=O)cc1 [Compound 068]
0.1 to 1	0.0001 to 0.1	COc1ccc(C[C@@H]2NC(=O)[C@H]([C@@H](C)O)NC(=O)[C@@H]3CCCN3C(=O)[C@H](Cc3c[nH]c4ccc(F)cc34)NC(=O)[C@H](Cc3c[nH]c4ccc(F)cc34)NC(=O)[C@@H](C)NC(=O)[C@H](CCCCN)NC(=O)CCSCc3cccc(n3)CSC[C@@H](C(N)=O)NC(=O)[C@]3(C)CCCN3C2=O)cc1 [Compound 065] ([Mpa]K[dA][Trp(5-F)][Trp(5-F)]PTY(Me)[αMeP]C-NH2; linker 1-10 via Pyridine(2,6-diCH2))
0.1 to 1	0.0001 to 0.1	CC(C)(O)[C@@H]1NC(=O)CCSCc2cccc(c2)CSC[C@@H](C(N)=O)NC(=O)[C@]2(C)CCCN2C(=O)[C@H](Cc2ccc(O)cc2)NC(=O)[C@H](Cc2cnc[nH]2)NC(=O)[C@H](CC(=O)O)NC(=O)[C@H](Cc2c[nH]c3ccc(F)cc23)NC(=O)[C@H](Cc2c[nH]c3ccc(F)cc23)NC(=O)CNC1=O [Compound 374] ([Mpa][Val(3-OH)]G[Trp(5-F)][Trp(5-F)]DHY[αMeP]C-NH2; linker 1-10 via mXylylene)
0.1 to 1	0.0001 to 0.1	COc1ccc(C[C@@H]2NC(=O)[C@H]([C@@H](C)O)NC(=O)[C@@H]3C[C@H](F)CN3C(=O)[C@H](Cc3c[nH]c4ccc(F)cc34)NC(=O)[C@H](Cc3c[nH]c4ccc(F)cc34)NC(=O)[C@@H](C)NC(=O)[C@H](CCCCN)NC(=O)[C@@H](NC(C)=O)CC(=O)NCCOc3ccc(cc3)C[C@@H](C(N)=O)NC(=O)[C@]3(C)CCCN3C2=O)cc1 [Compound 067] (Ac-DK[dA][Trp(5-F)][Trp(5-F)][Pro(cis-4-F)]TY(Me)[αMeP][AEF]-NH2; lactam 1-10)
0.1 to 1	0.1 to 1	COc1ccc(C[C@@H]2NC(=O)[C@H](Cc3cnc[nH]3)NC(=O)[C@H](CC(=O)O)NC(=O)[C@H](Cc3c[nH]c4ccc(F)cc34)NC(=O)[C@H](Cc3c[nH]c4ccc(F)cc34)NC(=O)[C@@H](C)NC(=O)[C@H](NC(C)=O)CCCCNC(=O)Cc3cccc(c3)CNC(=O)C[C@@H](C(N)=O)NC(=O)[C@]3(C)CCCN3C2=O)cc1 [Compound 394] (Ac-[dK][dA][Trp(5-F)][Trp(5-F)]DHY(Me)[αMeP]D-NH2; linker 1-9 via X21)
0.00011 to 0.1	0.1 to 1	COc1ccc(C[C@@H]2NC(=O)[C@@H]3CC/C=C\CO[C@H]4C[C@@H](C(=O)N3)N(C4)C(=O)[C@H](Cc3c[nH]c4ccc(F)cc34)NC(=O)[C@H](Cc3c[nH]c4ccc(F)cc34)NC(=O)[C@@H](C)NC(=O)[C@H](CCCCN)NC(=O)CCSCc3cccc(c3)CSC[C@@H](C(N)=O)NC(=O)[C@]3(C)CCCN3C2=O)cc1 [Compound 509]
